From patent publication US20070009886A1, “Carbohydrate-associated proteins” (Incyte Corporation, priority 2002, published 2007)

Columns and labels:
[1] = relative to progesterone; cited from earlier work
[2] = intranasal, relative to hydrocortisone; cited from earlier work
[3] = system: SEQ ID NO:37 expression in PBMCs; test: Microarray analysis of SEQ ID NO:37 expression in cytokine-treated versus untreated PBMCs; type: cell-based, human; conditions: 10 ng/ml recombinant IL-4, 2 hours, pooled PBMCs of 6 healthy donors
Procedure: Total RNA is isolated from tissue samples using the guanidinium thiocyanate method and poly(A)^+ RNA is purified using the oligo-(dT) cellulose method. Each poly(A)^+ RNA sample is reverse transcribed using MMLV reverse-transcriptase, 0.05 pg/μl oligo-(dT) primer (21mer), 1× first strand buffer, 0.03 units/μl RNase inhibitor, […], […], 500 μM dTTP, 40 μM dCTP, 40 μM dCTP-Cy3 (BDS) or dCTP-Cy5 (Amersham Biosciences). The reverse transcription reaction is performed in a […] containing 200 ng poly(A)^+ RNA with GEMBRIGHT kits (Incyte). Specific control poly(A)^+ RNAs are synthesized by in vitro transcription from non-coding yeast genomic DNA. […]
Sequences of the present invention are used to generate array elements. […] Array elements are amplified in thirty cycles of PCR from an initial quantity of 1-2 ng to a final quantity greater than 5 μg. […]
Reporter-labeled hybridization complexes are detected with a microscope equipped with an Innova 70 mixed gas 10 W laser (Coherent, Inc., Santa Clara Calif.) capable of generating spectral lines at 488 nm for excitation of Cy3 and at 632 nm for excitation of Cy5. […]
A grid is superimposed over the fluorescence signal image such that the signal from each spot is centered in each element of the grid. […]

6α-methyl-17-hydroxyprogesterone [medroxyprogesterone]
pharmacological activity greater than progesterone [1]: about 15 times

C[C@H]1C[C@H]2[C@@H]3CCC4=CC(=O)C=C[C@]4(C)[C@@]3(Cl)[C@@H](O)C[C@]2(C)[C@@]1(O)C(=O)CO [beclomethasone]
anti-inflammatory and vasoconstrictive effects greater than those produced by hydrocortisone [2]: 5000 times

B1: IL-4: a pleiotropic cytokine produced by activated T cells, mast cells, and basophils (protein, UniProt P05112 25-153, looked up)
Interleukin-4: HKCDITLQEIIKTLNSLTEQKTLCTELTVTDIFAASKNTTEKETFCRAATVLRQFYSHHEKDTRCLGATAQQFHRHKQLIRFLKRLDRNLWGLAGLNSCPVKEANQSTLENFLERLKTIMREKYSKCSS
expression of SEQ ID NO:37 increased in comparison to untreated PBMCs [3]: at least 2 fold
